Assay results taken from paper PMC10299588, “Bromotyrosine-Derived Metabolites from a Marine Sponge Inhibit Pseudomonas aeruginosa Biofilms” (International Journal of Molecular Sciences, 2023).

Assays:
Type in all cases: cell-based, Pseudomonas aeruginosa
[1] = system: PAO1ΔpslA (Psl deletion mutant); assay: Biofilm inhibition assay (OD600 growth and resazurin biofilm viability)
Protocol: Figure 2 Biofilm assays to identify compounds that prevent biofilm formation. Biofilm inhibition assay. P. aeruginosa cultures were seeded into 384-well plates after dispensing compounds and antibiotics. The plates were incubated for 24 h at 37 °C followed by recording bacterial growth (OD600) and measuring the viability of biofilm bacteria using resazurin.
The overnight cultures at 37 °C in LB medium were washed once with sterile saline 0.9% (w/v) and adjusted to an OD600 of 0.05, and 1% inoculum was transferred into a fresh LB medium. Following incubation at 37 °C, 200 rpm for 6–6.5 h to reach the mid-log phase, the cells were washed once with sterile saline 0.9% and diluted to an OD600 of 0.01. Then, 45 µL aliquots were dispensed into 384-well plates (Greiner Bio-One, Kremsmünster, Austria, catalog no. 781091). In biofilm inhibition assays, test compounds (5 µL) were loaded prior to the addition of bacteria. The plates were incubated for 24 h at 37 °C in static conditions. The effects of compounds on bacterial growth and viability of biofilm bacteria were determined by the OD600 and resazurin metabolic assay, respectively. The final concentrations of DMSO in the assays were 1–2%. The negative controls or untreated cultures consisted of inoculum and different concentrations of DMSO. Antibiotic ciprofloxacin (0.25 µg/mL and 25 µg/mL) was used as positive controls. The initial OD600 and final OD600 were read before incubation at 37 °C and after 24 h incubation, respectively, followed by assessment of biofilm viability by resazurin metabolic assay. The experiments were carried out with three technical replicates and repeated at least twice. The growth inhibition was calculated as a function of the percentage of the total bacterial inhibition using Equation (1), where AB is the OD600 of LB medium, and AT0 and ATf are the OD600 recorded at inoculating time and at the end of the assay. (1) % Inhibition=100 × [ 1 − [OD600 (Asample Tf− Asample T0)−(AB Tf − AB T0)/OD600 (Anegative control Tf− Anegative control T0)−(AB Tf − AB T0)]]
Resazurin sodium salt (Sigma-Aldrich, St. Louis, MI, USA) was dissolved in Milli-Q water at 0.2% (w/v) and filter sterilized. The solution was stored at −20 °C in the dark. The assay was performed as previously described with modification. The cultures were withdrawn, and the plates were washed three times with sterile water using the plate washer (BioTek). To remove the remaining water in the wells, the plates were tapped with autoclaved paper towels. An amount of 50 µL of diluted RSZ solution in LB medium was added into each well, followed by incubation at 37 °C for 5–6 h. A microplate reader (BioTek Synergy 2) was used to measure the fluorescence intensity (excitation 530 nm, emission 590 nm). Data collected were determined as a function of fluorescence percentage using Equation (2), where FB is the fluorescence of the diluted RSZ solution in LB medium in the absence of P. aeruginosa cells. (2) % Inhibition=[(Fnegative control −FB )−(Fsample −FB )/(Fnegative control − FB )]×100

planktonic PAO1 = assay: Checkerboard assay with antibiotics; design: MIC of ciprofloxacin reduced to: unit not given beside the values; conditions: for MIC of ciprofloxacin reduced to: in combination with compound; for synergy with ciprofloxacin: planktonic PAO1
Protocol: The synergistic activity of compounds with antibiotics, including tobramycin, ciprofloxacin and meropenem, was investigated by a checkerboard dilution assay. Briefly, mid-log cultures of P. aeruginosa were diluted 1:1250 before being added to the plates. Next, 90 µL aliquots of diluted cells were added to a 96-well Costar (Corning) plate containing either 10 µL of compounds and/or 10 µL of antibiotics. Compounds and antibiotics were tested at 11 and 7 concentrations, respectively. The first row contained antibiotics alone, while the first column contained compounds alone, and the remaining columns were for combinations.

[2] = system: efflux pumps of P. aeruginosa; assay: Ethidium bromide efflux assay; conditions: for efflux pump inhibition (intracellular EtBr accumulation): 60 min, compound 3 at 53.1 and 106.2 µg/mL
Description: We performed the ethidium bromide (EtBr) efflux assay to assess the ability of test compounds to inhibit efflux pumps of P. aeruginosa. The DNA-intercalating dye EtBr is a common substrate of the resistance-nodulation-cell division (RND) family. The dye only fluoresces when bound to DNA in the cytoplasm. The disruption of efflux pumps such as the RND pump AcrB enhances the accumulation of the substrate within the cells over time until it reaches a steady state. (Figure 5C).
To investigate the efflux pump-inhibiting activity of test compounds on wild-type PAO1, an efflux assay using ethidium bromide (EtBr) as a substrate was performed as previously described. An overnight culture of PAO1 in LB broth was incubated in a shaker at 37 °C until it reached an OD600 of 0.5. The bacterial cells were washed with phosphate buffered saline (PBS) and centrifuged, and the pellet was resuspended in PBS. Test compounds, 5 µL, were added to the flat-bottomed, black 96-well-plate followed by addition of 90 µL of the bacterial suspension. EtBr at a non-toxic concentration (5 µL, 2 µg/mL) was added before the plates were read. The fluorescence reading was recorded at an excitation of 530 nm and emission of 590 nm every min for 60 min using a BioTek Synergy H1 Hybrid microplate reader. Carbonyl cyanide m-chlorophenyl hydrazone (CCCP), a chemical inhibitor of efflux pumps, was used as the positive control, and DMSO (1–2%) was used as the vehicle control, as compounds were dissolved in DMSO. Untreated cells were used as the negative control.

PAO1 biofilms = assay: Fluorescence microscopy of biofilms (SYTO9/propidium iodide)
Protocol: (§1) Biofilms of wild-type PAO1 and isogenic biofilm matrix component mutants were treated with ianthelliformisamines or ciprofloxacin alone and the combinations. Their biofilms were simultaneously stained with SYTO9 (green) and propidium iodide (red). Cells with intact membranes were stained green, while cells with compromised membranes were stained red.
(§2) For biofilm bacteria imaging, bacteria were cultured, treated with test compounds, and washed, as previously mentioned in the biofilm inhibition assay. The biofilm bacteria were stained using a LIVE/DEAD BacLight bacterial viability kit (Molecular Probes, Inc., Eugene, OR, USA), which consists of SYTO9 (green; staining cells with intact membrane) and propidium iodide (red; staining cells with compromised membrane). Images were captured using a high-content imaging system Operetta CLS (Perkin Elmer, Waltham, MA, USA) with a 60× water-immersion objective.

PAO1ΔpslA biofilms = assay: as above
Protocol: as §1, §2

PDO300 biofilms = assay: as above; conditions: for biofilm after treatment: compound alone
Protocol: as §1, §2

PAO1ΔpelF biofilms = system: PAO1ΔpelF biofilms
Protocol: as §1, §2

[3] = compound alone (1 86.2, 2 69.1, 3 53.1/106.2 µg/mL)
[4] = in combination with ciprofloxacin

Compound	enhancement of the activity of tobramycin or meropenem (planktonic PAO1)	MIC of ciprofloxacin reduced to (planktonic PAO1)	synergy with ciprofloxacin (planktonic PAO1)	efflux pump inhibition (intracellular EtBr accumulation) [2]	interaction with ciprofloxacin on biofilms (PAO1 biofilms)	biofilm after treatment (PAO1 biofilms; [3])	biofilm after treatment (PAO1ΔpslA biofilms; [4])	effect in combination with ciprofloxacin (PDO300 biofilms)	biofilm after treatment (PDO300 biofilms)	effect in combination with ciprofloxacin (PAO1ΔpelF biofilms)	further results
COc1c(Br)cc(/C=C/C(=O)NCCCNCCCCN)cc1Br [Compound 2, ianthelliformisamine B]	did not enhance	1/4	worked synergistically	comparable EtBr accumulation with untreated bacteria	no effect	remained unaffected	eradicated	synergistic effects	slightly reduced	synergistic effects	interaction with ciprofloxacin ([1]; ciprofloxacin 1/3 and 1/4 MIC): no synergistic interaction; effect on growth and biofilm formation ([1]; compound alone): marginal effects
COc1c(Br)cc(/C=C/C(=O)NCCCNCCCCNCCCN)cc1Br [Compound 1, ianthelliformisamine A]	did not enhance	1/3	worked synergistically	comparable EtBr accumulation with untreated bacteria	synergistically	remained unaffected	eradicated	synergistic effects	slightly reduced	synergistic effects	biofilm after treatment (PAO1 biofilms; compound 86.2 µg/mL + ciprofloxacin 1/3 MIC): Complete biofilm inhibition
COc1c(Br)cc(/C=C/C(=O)NCCCNCCCCNCCCNC(=O)/C=C/c2cc(Br)c(OC)c(Br)c2)cc1Br [Compound 3, ianthelliformisamine C]	–	–	limited synergy	is an efflux pump inhibitor	antagonistically	slightly reduced	–	–	completely eradicated	no effect	synergistic interaction with ciprofloxacin, planktonic forms and biofilms ([1]; compound 53.1 µg/mL): negligible synergistic interactions; biofilm inhibition ([1]; compound 106.2 µg/mL + sub-lethal doses of ciprofloxacin): ~ 100%; killing of planktonic and biofilm populations ([1]; compound alone 106.2 µg/mL): completely killed; planktonic growth inhibition ([1]; compound alone 106.2 µg/mL): independently inhibited planktonic growth; level of intracellular EtBr accumulation relative to CCCP [2]: greater than that mediated by reference compound CCCP; efflux pump inhibition (intracellular EtBr accumulation) ([2]; listed as ianthelliformisamine C): inhibited the efflux pump; biofilm after treatment (PAO1ΔpslA biofilms; alone): completely dispersed the biofilm; biofilm after treatment (PAO1ΔpelF biofilms; compound alone): no effect
